Experimental data as given in publication PMC4428032 (Bioconjugate Chemistry, 2015).

How the values were obtained:
[1] = cited from earlier work
[2] = T1 relaxivity measurements at 0.5 T; assay type: physicochemical; settings: 20 MHz, 25 °C

T1 relaxivity [2] | SMILES | thermodynamic stability constant log K [1]
 | O=C([O-])CN1CCN(CC(=O)[O-])CCN(CC(=O)[O-])CC1.[Ga+3] [Ga-NOTA] | 31.0
 | O=C([O-])CN1CCN(CC(=O)[O-])CCN(CC(=O)O)CCN(CC(=O)[O-])CC1.[Gd+3] [Gd-DOTA] | 24.7
 | O=C([O-])CN1CCN(CC(=O)[O-])CCN(CC(=O)[O-])CC1.[Gd+3] [Gd-NOTA] | 14.3
4.1 mM^–1 s^–1 | CNC[C@H](O)[C@@H](O)[C@H](O)[C@H](O)CO.CNC[C@H](O)[C@@H](O)[C@H](O)[C@H](O)CO.O=C([O-])CN(CCN(CC(=O)[O-])CC(=O)O)CCN(CC(=O)[O-])CC(=O)O.[Gd+3] [Magnevist] | 
